Structures can show the parent of a compound that is named as a salt.
Tests used:
human and animal plasma = test: Determination of anticoagulatory activity: activated partial thromboplastin time (aPTT) in plasma; settings: concentration of test substance which brings about a 1.5-fold extension of the aPTT; plasma in vitro, C.K. Prest kit
Outline: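 Citrated plasma (human, mouse, rat, rabbit, pig, dog) incubated with varying compound concentrations and cephalin/kaolin PTT reagent for 3 minutes at 37° C.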

human factor XIa = molecular target: T1, human factor XIa (Homo sapiens, UniProt P03951); test: Measurement of FXIa inhibition (fluorogenic peptide substrate Boc-Glu(OBzl)-Ala-Arg-AMC); type: biochemical; settings: factor XIa from Kordia 0.45 nM, 15 min pre-incubation, 30 min at 22° C., fluorescence
T1 construct: purchased Kordia
T1 sequence (P03951 388-625 limits assumed): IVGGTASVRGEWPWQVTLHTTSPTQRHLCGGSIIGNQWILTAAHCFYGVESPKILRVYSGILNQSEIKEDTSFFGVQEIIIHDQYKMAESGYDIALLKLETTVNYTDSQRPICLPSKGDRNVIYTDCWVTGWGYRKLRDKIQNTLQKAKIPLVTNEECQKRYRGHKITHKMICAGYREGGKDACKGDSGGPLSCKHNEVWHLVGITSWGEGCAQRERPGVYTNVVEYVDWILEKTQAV
T1 sequence (P03951 19-387 partner limits assumed): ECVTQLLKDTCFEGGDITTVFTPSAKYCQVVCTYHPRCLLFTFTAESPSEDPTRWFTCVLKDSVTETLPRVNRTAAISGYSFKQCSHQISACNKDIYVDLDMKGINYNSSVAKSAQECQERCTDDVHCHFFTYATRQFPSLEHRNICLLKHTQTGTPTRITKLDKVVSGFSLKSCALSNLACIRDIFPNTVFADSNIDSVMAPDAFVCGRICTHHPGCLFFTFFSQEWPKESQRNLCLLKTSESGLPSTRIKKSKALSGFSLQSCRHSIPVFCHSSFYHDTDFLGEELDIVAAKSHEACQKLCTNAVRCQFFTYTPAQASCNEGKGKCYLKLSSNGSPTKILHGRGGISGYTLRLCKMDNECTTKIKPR

SMILES	aPTT (human and animal plasma)	IC50 (human factor XIa)
NC[C@H]1CC[C@H](C(=O)N[C@@H](Cc2cccc(-c3cnc(N4CCNCC4)nc3)c2)C(=O)Nc2ccc(-c3nnn[nH]3)cc2)CC1 [Example 68, N-alpha-{[trans-4-(Aminomethyl)cyclohexyl]carbonyl}-3-[2-(piperazin-1-yl)pyrimidin-5-yl]-N-[4-(1H-tetrazol-5-yl)phenyl]-L-phenylalaninamide hydrochloride]	0.18 µmol/L	7.3 nM
CC(C)N1CCC(NC(=O)c2cccc(-c3cccc(C[C@H](NC(=O)[C@H]4CC[C@H](CN)CC4)C(=O)Nc4ccc(-c5nnn[nH]5)cc4)c3)c2)CC1 [Example 32, 3′-[(2S)-2-({[trans-4-(Aminomethyl)cyclohexyl]carbonyl}amino)-3-oxo-3-{[4-(1H-tetrazol-5-yl)phenyl]amino}propyl]-N-[1-(propan-2-yl)piperidin-4-yl]biphenyl-3-carboxamide hydrochloride]	0.18 µmol/L	6.8 nM
CN1CCN(c2ncc(-c3cccc(C[C@H](NC(=O)[C@H]4CC[C@H](CN)CC4)C(=O)Nc4ccc(-c5nnc(Cl)[nH]5)cc4)c3)cn2)CC1 [Example 91, N-alpha-{[trans-4-(Aminomethyl)cyclohexyl]carbonyl}-N-[4-(3-chloro-4H-1,2,4-triazol-5-yl)phenyl]-3-[2-(4-methylpiperazin-1-yl)pyrimidin-5-yl]-L-phenylalaninamide hydrochloride]	0.06 µmol/L	3.5 nM
COc1ccc(C[C@H](NC(=O)[C@H]2CC[C@H](CN)CC2)C(=O)Nc2ccc(-c3nn[nH]n3)cc2)cc1-c1ccc(C(=O)NCCN)cc1C [Example 58, N-(2-Aminoethyl)-5′-[(2S)-2-({[trans-4-(aminomethyl)cyclohexyl]carbonyl}amino)-3-oxo-3-{[4-(2H-tetrazol-5-yl)phenyl]amino}propyl]-2′-methoxy-2-methylbiphenyl-4-carboxamide hydrochloride]	0.3 µmol/L	17 nM
CN(C)c1ncc(-c2cccc(C[C@H](NC(=O)[C@H]3CC[C@H](CN)CC3)C(=O)Nc3ccc(-c4nnn[nH]4)cc3)c2)cn1 [Example 70, N-alpha-{[trans-4-(Aminomethyl)cyclohexyl]carbonyl}-3-[2-(dimethylamino)pyrimidin-5-yl]-N-[4-(1H-tetrazol-5-yl)phenyl]-L-phenylalaninamide hydrochloride]	0.36 µmol/L	2.9 nM
Cc1ccc(S(=O)(=O)N2CCCC2)cc1-c1cccc(C[C@H](NC(=O)[C@H]2CC[C@H](CN)CC2)C(=O)Nc2ccc(-c3noc(=O)[nH]3)cc2)c1 [Example 36, trans-4-(Aminomethyl)-N-[(2S)-3-[2′-methyl-5′-(pyrrolidin-1-ylsulphonyl)biphenyl-3-yl]-1-oxo-1-{[4-(5-oxo-4,5-dihydro-1,2,4-oxadiazol-3-yl)phenyl]amino}propan-2-yl]cyclohexanecarboxamide hydrochloride]	0.12 µmol/L	2.2 nM
CCN(CC)CCNC(=O)c1cccc(-c2cccc(C[C@H](NC(=O)[C@H]3CC[C@H](CN)CC3)C(=O)Nc3ccc(-c4nnc(Cl)[nH]4)cc3)c2)c1 [Example 40, 3′-[(2S)-2-({[trans-4-(Aminomethyl)cyclohexyl]carbonyl}amino)-3-{[4-(3-chloro-4H-1,2,4-triazol-5-yl)phenyl]amino}-3-oxopropyl]-N-[2-(diethylamino)ethyl]biphenyl-3-carboxamide hydrochloride]	0.19 µmol/L	8.3 nM
Cc1ccc2[nH]ncc2c1-c1cccc(C[C@H](NC(=O)[C@H]2CC[C@H](CN)CC2)C(=O)Nc2ccc(-c3nnn[nH]3)cc2)c1 [Example 83, N-alpha-{[trans-4-(Aminomethyl)cyclohexyl]carbonyl}-3-(5-methyl-1H-indazol-4-yl)-N-[4-(1H-tetrazol-5-yl)phenyl]-L-phenylalaninamide hydrochloride]	0.17 µmol/L	1.3 nM
NC[C@H]1CC[C@H](C(=O)N[C@@H](Cc2cccc(-c3cccc(C(=O)N4CCOCC4)c3)c2)C(=O)Nc2ccc(-c3nnn[nH]3)cc2)CC1 [Example 47, trans-4-(Aminomethyl)-N-[(2S)-3-[3′-(morpholin-4-ylcarbonyl)biphenyl-3-yl]-1-oxo-1-{[4-(1H-tetrazol-5-yl)phenyl]amino}propan-2-yl]cyclohexanecarboxamide hydrochloride]	0.34 µmol/L	5.2 nM
CON(C)C(=O)c1ccc(F)c(-c2cccc(C[C@H](NC(=O)[C@H]3CC[C@H](CN)CC3)C(=O)Nc3ccc(-c4nnn[nH]4)cc3)c2)c1 [Example 45, 3′-[(2S)-2-({[trans-4-(Aminomethyl)cyclohexyl]carbonyl}amino)-3-oxo-3-{[4-(1H-tetrazol-5-yl)phenyl]amino}propyl]-6-fluoro-N-methoxy-N-methylbiphenyl-3-carboxamide hydrochloride]	0.3 µmol/L	5.8 nM
CN(C)c1ncc(-c2cccc(C[C@H](NC(=O)[C@H]3CC[C@H](CN)CC3)C(=O)Nc3ccc(-c4nnc(Cl)[nH]4)cc3)c2)cn1 [Example 93, N-alpha-{[trans-4-(Aminomethyl)cyclohexyl]carbonyl}-N-[4-(3-chloro-4H-1,2,4-triazol-5-yl)phenyl]-3-[2-(dimethylamino)pyrimidin-5-yl]-L-phenylalaninamide hydrochloride]	0.48 µmol/L	5.3 nM
NC[C@H]1CC[C@H](C(=O)N[C@@H](Cc2cccc(-c3cncc(S(=O)(=O)NC4CCNCC4)c3)c2)C(=O)Nc2ccc(-c3nnc(Cl)[nH]3)cc2)CC1 [Example 106, N-alpha-{[trans-4-(Aminomethyl)cyclohexyl]carbonyl}-N-[4-(3-chloro-4H-1,2,4-triazol-5-yl)phenyl]-3-[5-(piperidin-4-ylsulphamoyl)pyridin-3-yl]-L-phenylalaninamide hydrochloride]	0.13 µmol/L	5.7 nM
Cc1ccc(N)cc1-c1cccc(C[C@H](NC(=O)[C@H]2CC[C@H](CN)CC2)C(=O)Nc2ccc(-c3nnn[nH]3)cc2)c1 [Example 103, trans-4-(Aminomethyl)-N-[(2S)-3-(5′-amino-2′-methylbiphenyl-3-yl)-1-oxo-1-{[4-(1H-tetrazol-5-yl)phenyl]amino}propan-2-yl]cyclohexanecarboxamide hydrochloride]	0.1 µmol/L	3.3 nM
Cc1ccc(S(=O)(=O)N2CCCC2)cc1-c1cccc(C[C@H](NC(=O)[C@H]2CC[C@H](CN)CC2)C(=O)Nc2ccc3[nH]c(=O)[nH]c3c2)c1 [Example 11, trans-4-(Aminomethyl)-N-{(2S)-3-[2′-methyl-5′-(pyrrolidin-1-ylsulphonyl)biphenyl-3-yl]-1-oxo-1-[(2-oxo-2,3-dihydro-1H-benzimidazol-5-yl)amino]propan-2-yl}cyclohexanecarboxamide hydrochloride]	0.3 µmol/L	7.9 nM
CN(C)CCCOc1ccc(-c2cccc(C[C@H](NC(=O)[C@H]3CC[C@H](CN)CC3)C(=O)Nc3ccc(-c4nnn[nH]4)cc3)c2)cn1 [Example 59, N-alpha-{[trans-4-(Aminomethyl)cyclohexyl]carbonyl}-3-{6-[3-(dimethylamino)propoxy]pyridin-3-yl}-N-[4-(1H-tetrazol-5-yl)phenyl]-L-phenylalaninamide hydrochloride]	0.19 µmol/L	7.2 nM
